According to BindingDB's records for doi:10.1021/bi9016186 (Weill Cornell Medical College, 2010):

Target: T1, Dihydrolipoyl dehydrogenase (Mycobacterium tuberculosis (strain CDC 1551 / Oshkosh), UniProt P9WHH8)
T1 sequence (P9WHH8 whole entry): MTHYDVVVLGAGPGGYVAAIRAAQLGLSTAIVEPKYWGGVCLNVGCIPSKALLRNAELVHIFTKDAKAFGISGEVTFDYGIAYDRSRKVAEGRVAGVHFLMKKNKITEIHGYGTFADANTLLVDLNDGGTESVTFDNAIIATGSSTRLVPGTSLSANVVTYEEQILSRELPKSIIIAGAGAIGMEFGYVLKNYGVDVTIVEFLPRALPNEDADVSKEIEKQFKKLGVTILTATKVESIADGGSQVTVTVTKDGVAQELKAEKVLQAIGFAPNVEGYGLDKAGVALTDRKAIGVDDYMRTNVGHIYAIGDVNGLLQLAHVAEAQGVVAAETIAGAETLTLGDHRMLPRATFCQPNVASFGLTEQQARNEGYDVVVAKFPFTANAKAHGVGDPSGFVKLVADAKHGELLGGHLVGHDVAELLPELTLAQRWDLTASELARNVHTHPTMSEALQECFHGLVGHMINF
Experiment: Enzymatic Assay

SMILES | IC50
COc1ccc(C(=O)N2CCC3(CC2)C(=O)N(CC(=O)NCCc2ccc(C(F)(F)F)cc2)CN3c2ccccc2)c(OC)c1 [Triazaspirobenzyl, 4] | 2000 nM
COc1cccc(C(=O)N2CCC3(CC2)C(=O)N(CC(=O)NCCc2ccc(C(F)(F)F)cc2)CN3c2ccccc2)c1 [Triazaspirobenzyl, 8] | > 100000 nM
